Results: patent publication US20260356851A1, “TRICYCLIC COMPOUNDS AND USES THEREOF” (HUTCHMED LIMITED, priority 2023, published 2026)

Key:
Assay type in all cases: cell-based
[1] = target: T1, pERK1/2 (Thr202/Tyr204), NCI-1H358 (KRAS G12C) (Homo sapiens, UniProt P01116, G12C); test: Assay of intracellular pERK1/2 (Thr202/Tyr204) phosphorylation in NCI-H358 cells (KRAS G12C); details: pERK1/2, 2 days, read-out: NCI-H358 (KRAS G12C) IC50
T1 construct: pERK1/2 HTRF read-out
Summary of the method: (§1)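 HTRF detection of Thr202/Tyr204-phosphorylated ERK1/2 (665/615 nm ratio) in lysates from cells treated 2 days with serially 3-fold diluted compound.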

[2] = target: T2, pERK1/2 (Thr202/Tyr204), PANC-1 (KRAS G121D) (Homo sapiens, UniProt P01116, G12D); test: Assay of intracellular pERK1/2 (Thr202/Tyr204) phosphorylation in PANC-1 cells (KRAS G12D); details: pERK1/2, 2 days, read-out: PANC-1 (KRAS G12D) IC50
T2 construct: pERK1/2 HTRF read-out
T2 sequence (P01116 1-188 isoform P01116-2 G12D): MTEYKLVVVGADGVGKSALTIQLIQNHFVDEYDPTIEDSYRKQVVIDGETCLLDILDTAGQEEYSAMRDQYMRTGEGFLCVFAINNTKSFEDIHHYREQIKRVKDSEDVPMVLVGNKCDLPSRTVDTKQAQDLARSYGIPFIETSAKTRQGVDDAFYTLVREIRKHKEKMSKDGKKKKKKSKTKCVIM
Summary of the method: as §1

[3] = target: T3, pERK1/2 (Thr202/Tyr204), NCI-1H441 (KRAS G12V) (Homo sapiens, UniProt P01116, G12V); test: Assay of intracellular pERK1/2 (Thr202/Tyr204) phosphorylation in NCI-H441 cells (KRAS G12V); details: pERK1/2, 2 days, read-out: NCI-H441 (KRAS G12V) IC50
T3 construct: pERK1/2 HTRF read-out
T3 sequence (P01116 1-188 isoform P01116-2 G12V): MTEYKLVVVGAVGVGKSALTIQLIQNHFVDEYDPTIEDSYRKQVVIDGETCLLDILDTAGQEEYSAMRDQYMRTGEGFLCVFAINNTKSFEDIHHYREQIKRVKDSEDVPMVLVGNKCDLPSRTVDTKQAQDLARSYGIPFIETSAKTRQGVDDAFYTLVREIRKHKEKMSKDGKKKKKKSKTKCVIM
Summary of the method: as §1

T1 sequence (P01116 1-188 isoform P01116-2 G12C): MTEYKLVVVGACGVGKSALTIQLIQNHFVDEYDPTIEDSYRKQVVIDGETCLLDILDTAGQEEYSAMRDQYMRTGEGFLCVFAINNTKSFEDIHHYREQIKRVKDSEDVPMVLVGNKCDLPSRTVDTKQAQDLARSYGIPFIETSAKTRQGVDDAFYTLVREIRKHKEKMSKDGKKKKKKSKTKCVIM

Row | IC50 [1] | IC50 [2] | IC50 [3] | SMILES
1 | 0.2 nM | 3 nM | 0.4 nM | CC(c1cccnc1N)N1CCOc2nc(-c3cc(N)cc(Cl)c3C3CC3)c(F)c3nc(OC[C@@]45CCCN4C[C@H](F)C5)nc1c23 (stereo partly drawn) [Compound 66]
2 | 5 nM | 81 nM | 8 nM | CC(c1cccnc1N)N1CCOc2nc(-c3cc(N)cc(Cl)c3C3CC3)c(F)c3nc(OC[C@@H]4CCCN4C)nc1c23 (stereo partly drawn) [Compound 67]
3 | 264 nM | > 1000 nM | 506 nM | CC(c1cccnc1N)N1CCOc2nc(-c3cc(N)cc(Cl)c3C3CC3)c(F)c3nc(OCC4(C#N)CC4)nc1c23 (stereo not drawn) [Compound 68]
4 | 3 nM | 95 nM | 10 nM | Cc1cc(N)cc(-c2nc3c4c(nc(OCC5(CN(C)C)CC5)nc4c2F)N(C(C)c2cccnc2N)CCO3)c1C(F)(F)F (stereo not drawn) [Compound 69]
5 | 2 nM | > 100 nM | 2 nM | Cc1cc(N)cc(-c2nc3c4c(nc(OC[C@@H]5CC(F)(F)CN5C)nc4c2F)N(C(C)c2cccnc2N)CCO3)c1C(F)(F)F (stereo partly drawn) [Compound 70]
6 | 0.9 nM | 31 nM | 2 nM | Cc1cc(N)cc(-c2nc3c4c(nc(OC[C@@H]5C[C@@H](F)CN5C)nc4c2F)N(C(C)c2cccnc2N)CCO3)c1C(F)(F)F (stereo partly drawn) [Compound 73]
7 | 0.8 nM | 15 nM | 0.8 nM | CC(c1cccnc1N)N1CCOc2nc(-c3cc(N)cc(F)c3C(F)(F)F)c(F)c3nc(OC[C@@]45CCCN4C[C@H](F)C5)nc1c23 (stereo partly drawn) [Compound 82]
8 | 0.6 nM | 29 nM | 3 nM | Cc1nc(N)cc(-c2nc3c4c(nc(OC[C@@]56CCCN5C[C@H](F)C6)nc4c2F)N(C(C)c2cccnc2N)CCO3)c1C(F)(F)F (stereo partly drawn) [Compound 83]
9 | 3 nM | 36 nM | 6 nM | Cc1cc(N)cc(-c2nc3c4c(nc(OCC56CCCN5CCC6)nc4c2F)N(C(C)c2cccnc2N)CCO3)c1C(F)(F)F (stereo not drawn) [Compound 87]
10 | 46 nM | > 100 nM | 100 nM | C#Cc1c(Cl)cc(N)cc1-c1nc2c3c(nc(OC[C@@H]4CCCN4C)nc3c1F)N(C(C)c1cccnc1N)CCO2 (stereo partly drawn) [Compound 94]
11 | 16 nM | > 100 nM | 36 nM | Cc1nc(N)cc(-c2nc3c4c(nc(OC[C@@H]5CCCN5C)nc4c2F)N(C(C)c2cccnc2N)CCO3)c1C(F)(F)F (stereo partly drawn) [Compound 97]
12 | 2 nM | 24 nM | 3 nM | [2H]C([2H])(Oc1nc2c3c(nc(-c4cc(N)c(F)c(C)c4C(F)(F)F)c(F)c3n1)OCCN2C(C)c1cccnc1N)[C@@H]1CCC([2H])([2H])N1C([2H])([2H])[2H] (stereo partly drawn) [Compound 104]
13 | 0.4 nM | 2 nM | 0.6 nM | [2H]C1([2H])CC[C@@]2(C([2H])([2H])Oc3nc4c5c(nc(-c6cc(N)cc(C)c6C(F)(F)F)c(F)c5n3)OCCN4C(C)c3cccnc3N)C[C@@H](F)CN12 (stereo partly drawn) [Compound 105]
14 | 12 nM | > 100 nM | 26 nM | Cc1cc(N)cc(-c2nc3c4c(nc(OC[C@@H]5CCCN5CCO)nc4c2F)N(C(C)c2cccnc2N)CCO3)c1C(F)(F)F (stereo partly drawn) [Compound 108]
15 | 1 nM | 21 nM | 1 nM | [2H]C([2H])([2H])N1CCC[C@H]1COc1nc2c3c(nc(-c4cc(N)cc(Cl)c4C(F)(F)F)c(F)c3n1)OCCN2C(C)c1cccnc1N (stereo partly drawn) [Compound 111]
16 | 1 nM | 34 nM | 2 nM | [2H]C([2H])(Oc1nc2c3c(nc(-c4cc(N)cc(Cl)c4C(F)(F)F)c(F)c3n1)OCCN2C(C)c1cccnc1N)[C@@H]1CCC([2H])([2H])N1C([2H])([2H])[2H] (stereo partly drawn) [Compound 112]

Row | IC50 [1] | IC50 [2] | IC50 [3] | SMILES
17 | 0.7 nM | 2 nM | 0.8 nM | [2H]C1([2H])CC[C@@]2(C([2H])([2H])Oc3nc4c5c(nc(-c6cc(N)cc(Cl)c6C(F)(F)F)c(F)c5n3)OCCN4C(C)c3cccnc3N)C[C@@H](F)CN12 (stereo partly drawn) [Compound 113]
18 | 0.6 nM | 19 nM | 0.9 nM | CCN1CCC[C@H]1COc1nc2c3c(nc(-c4cc(N)cc(C)c4C(F)(F)F)c(F)c3n1)OCCN2C(C)c1cccnc1N (stereo partly drawn) [Compound 114]
19 | 0.3 nM | 2 nM | 0.4 nM | [2H]C1([2H])CC[C@@]2(C([2H])([2H])Oc3nc4c5c(nc(-c6cc(N)c(F)c(C)c6C(F)(F)F)c(F)c5n3)OCCN4C(C)c3cccnc3N)C[C@@H](F)CN12 (stereo partly drawn) [Compound 119]
20 | 0.3 nM | 1 nM | 0.4 nM | Cc1c(F)c(N)cc(-c2nc3c4c(nc(OC[C@@]56CCCN5C[C@H](F)C6)nc4c2F)N(C(C)c2cccnc2N)CCO3)c1C(F)(F)F (stereo partly drawn) [Compound 120]
21 | > 100 nM | > 100 nM | 98 nM | Cc1cc(N)cc(-c2nc3c4c(nc(OC[C@@]56CCCN5C[C@H](F)C6)nc4c2F)N(C(C)c2cccnn2)CCO3)c1C(F)(F)F (stereo partly drawn) [Compound 121]
22 | 0.6 nM | 11 nM | 1 nM | [2H]C([2H])(Oc1nc2c3c(nc(-c4cc(N)cc(C)c4C(F)(F)F)c(F)c3n1)OCCN2C(C)c1cccnc1N)[C@@H]1C[C@@H](F)CN1C([2H])([2H])[2H] (stereo partly drawn) [Compound 122]
23 | 2 nM | > 100 nM | 4 nM | Cc1cc(N)cc(-c2nc3c4c(nc(OC[C@@H]5CCCN5C5COC5)nc4c2F)N(C(C)c2cccnc2N)CCO3)c1C(F)(F)F (stereo partly drawn) [Compound 123]
24 | 7 nM | > 100 nM | 31 nM | [2H]C([2H])(Oc1nc2c3c(nc(-c4cc(N)ccc4C(F)(F)F)c(F)c3n1)OCCN2C(C)c1cccnc1N)[C@@H]1C[C@@H](F)CN1C([2H])([2H])[2H] (stereo partly drawn) [Compound 126]
25 | 0.9 nM | 26 nM | 2 nM | [2H]C1([2H])CC[C@@]2(C([2H])([2H])Oc3nc4c5c(nc(-c6cc(N)ccc6C(F)(F)F)c(F)c5n3)OCCN4C(C)c3cccnc3N)C[C@@H](F)CN12 (stereo partly drawn) [Compound 129]
26 | 31 nM | > 100 nM | 34 nM | CC(c1cccnc1N)N1CCOc2nc(-c3cc(O)cc(Cl)c3C3CC3)c(F)c3nc(OC[C@@H]4COCCN4C)nc1c23 (stereo partly drawn) [Compound 134]
27 | 2 nM | 30 nM | 3 nM | CC(c1cccnc1N)N1CCOc2nc(-c3cc(N)c(F)cc3C(F)(F)F)c(F)c3nc(OC[C@@]45CCCN4C[C@H](F)C5)nc1c23 (stereo partly drawn) [Compound 135]
28 | 17 nM | > 100 nM | 61 nM | [2H]C([2H])(Oc1nc2c3c(nc(-c4cc(N)c(F)cc4C(F)(F)F)c(F)c3n1)OCCN2C(C)c1cccnc1N)[C@@H]1C[C@@H](F)CN1C([2H])([2H])[2H] (stereo partly drawn) [Compound 136]
29 | 91 nM | > 100 nM | > 100 nM | CC(c1cccnc1N)N1CCOc2nc(-c3cc(O)cc(Cl)c3C3CC3)c(F)c3nc(OC[C@@H]4CCCCN4C)nc1c23 (stereo partly drawn) [Compound 139]
30 | 0.3 nM | 1 nM | 0.9 nM | [2H]C1([2H])CN(C(C)c2cccnc2N)c2nc(OC[C@@]34CCCN3C[C@H](F)C4)nc3c(F)c(-c4cc(N)cc(C)c4C(F)(F)F)nc(c23)O1 (stereo partly drawn) [Compound 140]
31 | 0.3 nM | > 100 nM | 0.7 nM | [2H]C1([2H])CN(C([2H])(C)c2cccnc2N)c2nc(OC[C@@]34CCCN3C[C@H](F)C4)nc3c(F)c(-c4cc(N)cc(C)c4C(F)(F)F)nc(c23)O1 (stereo partly drawn) [Compound 141]
